Results from ChEMBL document CHEMBL1201862, “PubChem BioAssay data set” (2004).
The source made the active and inactive calls.

Legend:
[1] = target: Small ubiquitin-related modifier 2 (Homo sapiens, UniProt P61956); assay: SUMO2 binding disruption by SUMO1 hits – biochemical, FRET, human SUMO2, uHTS hits, selectivity assay for SUMO1 interaction inhibitor project, dose response (AID 624384); assay type: functional; details: read-out: IC50_Mean
[2] = target: T1, Small ubiquitin-related modifier 1 (Homo sapiens, UniProt P63165); assay: SUMO1 protein-protein binding blockers, potency – biochemical, FRET, dose response (AID 624383); assay type: functional; details: read-out: IC50_Mean
T1 sequence (P63165 whole entry): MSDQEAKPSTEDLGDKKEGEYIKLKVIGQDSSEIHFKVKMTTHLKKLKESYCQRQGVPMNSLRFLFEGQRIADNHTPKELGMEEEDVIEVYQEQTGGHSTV

Genome polyprotein = Genome polyprotein (dengue virus type 2, UniProt P29990); assay: flavivirus cap methylation enzyme inhibition – biochemical, confirmation dose response, primary screen (AID 588689); assay type: functional
Sequence of Genome polyprotein (P29990 2492-3391 limits assumed): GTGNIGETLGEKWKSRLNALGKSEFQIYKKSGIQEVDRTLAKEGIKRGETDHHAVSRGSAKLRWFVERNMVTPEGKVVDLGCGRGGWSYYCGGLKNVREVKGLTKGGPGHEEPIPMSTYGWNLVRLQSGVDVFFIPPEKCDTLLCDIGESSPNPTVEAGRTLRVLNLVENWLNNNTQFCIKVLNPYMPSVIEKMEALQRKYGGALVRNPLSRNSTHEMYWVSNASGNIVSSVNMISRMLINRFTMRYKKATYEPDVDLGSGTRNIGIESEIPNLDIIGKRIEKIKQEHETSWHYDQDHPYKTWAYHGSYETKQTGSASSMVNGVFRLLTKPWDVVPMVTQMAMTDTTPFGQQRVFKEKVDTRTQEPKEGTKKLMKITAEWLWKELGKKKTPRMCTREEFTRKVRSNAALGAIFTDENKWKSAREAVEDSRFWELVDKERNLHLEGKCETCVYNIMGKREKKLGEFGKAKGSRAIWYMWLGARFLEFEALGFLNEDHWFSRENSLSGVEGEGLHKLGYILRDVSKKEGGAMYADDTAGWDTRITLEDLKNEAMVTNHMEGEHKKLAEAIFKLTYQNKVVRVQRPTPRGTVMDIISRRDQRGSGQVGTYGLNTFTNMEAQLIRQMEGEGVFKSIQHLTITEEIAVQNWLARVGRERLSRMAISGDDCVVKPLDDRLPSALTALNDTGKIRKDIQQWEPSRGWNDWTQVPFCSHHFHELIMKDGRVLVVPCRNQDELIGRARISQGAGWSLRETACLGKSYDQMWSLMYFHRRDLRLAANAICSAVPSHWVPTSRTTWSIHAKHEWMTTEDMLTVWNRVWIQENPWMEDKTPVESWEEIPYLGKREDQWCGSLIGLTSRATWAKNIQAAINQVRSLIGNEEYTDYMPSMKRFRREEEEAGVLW

[3] = target: T1, Small ubiquitin-related modifier 1; assay: SUMO1 protein interaction blockers, potency – biochemical, fluorescence polarization, uHTS hits, dose response (AID 624382); assay type: functional; details: read-out: IC50_Mean
[4] = toxicity toward HepG2 liver cells – cell-based, plate reader, cherry-pick, antagonist series, cytotoxicity control, dose response (AID 743416); assay type: functional
[5] = A549 cell cytotoxicity, dose response, cytotoxicity control, plate reader, cherry-pick, antagonist series (AID 743412); assay type: functional, cell-based
[6] = loss of viability in HepG2 cells – cell-based, CellTiter-Glo, cherry-picked, cytotoxicity control for Shn3 inhibitor project, dose response (AID 624134); assay type: functional
[7] = cytotoxicity toward MDA-MB-231 breast cancer cells – cell-based, CellTiter-Glo luminescence, cherry-pick, cytotoxicity control for RAD54 inhibitor project, dose response (AID 651692); assay type: functional
[8] = blockade of melanocortin 4 receptor signaling – cell-based, plate reader, cherry pick, counter-screen for LGR2 antagonist project, dose response (AID 743444); assay type: functional;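 further: transfected HEK 293 cells stimulated with alpha-MSH peptide; potency of inhibitors of the alpha-MSH evoked signal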
[9] = target: Dual specificity protein phosphatase 6 (Rattus norvegicus, UniProt Q64346); assay: inhibition of rat DUSP6 enzyme activity – biochemical, in vitro, primary screen (AID 425)
Sequence of Dual specificity protein phosphatase 6 (Q64346 whole entry): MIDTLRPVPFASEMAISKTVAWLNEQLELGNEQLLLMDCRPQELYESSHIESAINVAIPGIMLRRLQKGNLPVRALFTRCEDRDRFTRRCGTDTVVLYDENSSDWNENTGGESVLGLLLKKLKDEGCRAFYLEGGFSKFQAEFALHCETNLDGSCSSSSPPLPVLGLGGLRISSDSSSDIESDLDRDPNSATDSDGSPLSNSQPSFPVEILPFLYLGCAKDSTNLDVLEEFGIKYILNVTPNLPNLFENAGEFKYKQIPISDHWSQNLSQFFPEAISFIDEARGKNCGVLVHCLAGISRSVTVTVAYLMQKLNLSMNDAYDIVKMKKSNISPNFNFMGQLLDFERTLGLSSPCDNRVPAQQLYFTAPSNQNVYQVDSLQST

[10] = viability loss in HEK293 cells – cell-based, plate reader, cherry-picked samples, cytotoxicity control, dose response (AID 743446); assay type: functional
[11] = target: T2, DNA repair and recombination protein RAD54-like (Homo sapiens, UniProt Q92698); assay: RAD54 Holliday junction migration blockers – biochemical, fluorescence, cherry-picked samples, dose series, confirmation (AID 651657); assay type: functional
T2 sequence (Q92698 whole entry): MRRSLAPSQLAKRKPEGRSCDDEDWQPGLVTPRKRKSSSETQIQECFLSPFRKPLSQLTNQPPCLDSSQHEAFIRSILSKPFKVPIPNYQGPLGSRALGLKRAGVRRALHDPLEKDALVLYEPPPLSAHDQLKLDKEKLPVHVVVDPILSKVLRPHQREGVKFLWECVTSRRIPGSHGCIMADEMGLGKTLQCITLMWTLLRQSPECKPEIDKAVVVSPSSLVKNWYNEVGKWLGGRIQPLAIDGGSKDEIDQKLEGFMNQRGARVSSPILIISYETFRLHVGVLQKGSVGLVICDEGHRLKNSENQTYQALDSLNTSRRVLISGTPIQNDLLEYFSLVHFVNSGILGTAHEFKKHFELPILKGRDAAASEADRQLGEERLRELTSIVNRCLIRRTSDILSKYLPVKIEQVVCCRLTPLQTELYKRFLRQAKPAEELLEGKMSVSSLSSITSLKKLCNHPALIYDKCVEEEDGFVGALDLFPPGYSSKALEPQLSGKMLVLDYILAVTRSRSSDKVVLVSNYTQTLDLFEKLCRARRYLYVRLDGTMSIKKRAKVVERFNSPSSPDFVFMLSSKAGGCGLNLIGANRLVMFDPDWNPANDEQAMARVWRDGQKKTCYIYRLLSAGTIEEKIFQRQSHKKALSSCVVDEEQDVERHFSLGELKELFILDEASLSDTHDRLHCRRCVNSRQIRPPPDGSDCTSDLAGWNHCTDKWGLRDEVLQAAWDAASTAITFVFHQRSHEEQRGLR

[12] = non-specific 3'UTR reporter inhibition in Clone20-Shn3RL – cell-based, Renilla luciferase, cherry-picked, counter-screen for Shn3 inhibitor project, dose response (AID 624133); assay type: functional
[13] = target: Dual specificity protein phosphatase 3 (Homo sapiens, UniProt P51452); assay: VHR1 phosphatase inhibitors, primary screen, biochemical, absorbance, uHTS (AID 1654)
Sequence of Dual specificity protein phosphatase 3 (P51452 whole entry): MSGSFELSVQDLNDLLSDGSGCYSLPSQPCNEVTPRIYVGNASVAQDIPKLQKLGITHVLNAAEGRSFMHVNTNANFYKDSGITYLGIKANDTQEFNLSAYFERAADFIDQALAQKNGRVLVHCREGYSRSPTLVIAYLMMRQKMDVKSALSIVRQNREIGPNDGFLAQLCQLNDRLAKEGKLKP

[14] = target: Protein disulfide-isomerase A6 (Homo sapiens, UniProt Q15084); assay: reduced insulin turbidity driven by ERp5 (PDIA6) – biochemical, absorbance 650 nm, cherry-picked samples, dose response (AID 720566)
Sequence of Protein disulfide-isomerase A6 (Q15084 whole entry, the tested form may be a part): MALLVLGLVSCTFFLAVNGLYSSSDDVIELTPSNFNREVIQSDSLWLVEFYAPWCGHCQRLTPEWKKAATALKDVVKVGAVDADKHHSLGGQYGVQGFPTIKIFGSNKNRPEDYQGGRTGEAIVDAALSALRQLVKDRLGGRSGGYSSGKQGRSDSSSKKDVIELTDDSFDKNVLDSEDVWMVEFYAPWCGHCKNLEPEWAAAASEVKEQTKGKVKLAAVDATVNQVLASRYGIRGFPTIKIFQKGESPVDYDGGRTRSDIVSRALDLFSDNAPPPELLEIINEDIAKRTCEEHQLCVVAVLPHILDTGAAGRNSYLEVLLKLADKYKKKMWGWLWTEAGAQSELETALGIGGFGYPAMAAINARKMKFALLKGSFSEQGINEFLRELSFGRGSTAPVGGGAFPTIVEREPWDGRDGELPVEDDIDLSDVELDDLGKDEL

[15] = blockers of HIV-1 ZM109 envelope-driven cell-cell fusion – HeLa effector, CEM target cells, luciferase, cherry-pick, dose response (AID 652058); assay type: functional, cell-based;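 further: luciferase signal from HIV-1 Env mediated cell-cell fusion of effector and target cells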
Cytochrome P450 3A4 = Cytochrome P450 3A4 (Homo sapiens, UniProt P08684);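 further: CYP3A4 tested as one member of a cytochrome P450 panel screen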
Sequence of Cytochrome P450 3A4 (P08684 whole entry): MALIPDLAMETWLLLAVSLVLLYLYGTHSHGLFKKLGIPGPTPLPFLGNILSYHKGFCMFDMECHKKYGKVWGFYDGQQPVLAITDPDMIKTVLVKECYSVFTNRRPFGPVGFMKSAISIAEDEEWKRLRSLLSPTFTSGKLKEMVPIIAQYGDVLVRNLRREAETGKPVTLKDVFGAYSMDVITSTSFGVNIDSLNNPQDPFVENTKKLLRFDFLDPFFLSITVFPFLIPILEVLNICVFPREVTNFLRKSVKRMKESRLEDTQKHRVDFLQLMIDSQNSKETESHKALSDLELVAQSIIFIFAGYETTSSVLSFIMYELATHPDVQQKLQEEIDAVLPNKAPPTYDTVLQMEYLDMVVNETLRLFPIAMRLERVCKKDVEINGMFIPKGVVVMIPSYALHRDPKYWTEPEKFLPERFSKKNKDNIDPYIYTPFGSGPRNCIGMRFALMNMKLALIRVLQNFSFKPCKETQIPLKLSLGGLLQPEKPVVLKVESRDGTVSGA

Galanin receptor type 3 = target: T3, Galanin receptor type 3 (Homo sapiens, UniProt O60755); assay: Fluorescence-based cell-based primary high throughput dose response assay to identify antagonists of the Galanin Receptor 3 (GalR3).; assay type: functional
T3 sequence (O60755 whole entry): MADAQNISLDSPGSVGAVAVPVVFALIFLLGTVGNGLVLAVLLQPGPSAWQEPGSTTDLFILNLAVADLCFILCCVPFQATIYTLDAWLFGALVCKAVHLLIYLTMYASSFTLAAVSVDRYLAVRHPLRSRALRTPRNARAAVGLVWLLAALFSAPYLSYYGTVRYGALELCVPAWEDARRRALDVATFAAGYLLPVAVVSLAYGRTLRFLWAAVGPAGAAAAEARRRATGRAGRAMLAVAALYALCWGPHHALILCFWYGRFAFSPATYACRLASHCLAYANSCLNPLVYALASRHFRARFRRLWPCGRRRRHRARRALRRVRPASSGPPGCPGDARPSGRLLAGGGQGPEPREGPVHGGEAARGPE

BJ = assay: BJ-TERT fibroblast viability loss – cell-based, RAS-independent, luminescence, dose response (AID 1933); assay type: functional; details: Homo sapiens
[16] = HIV-1 AD8 envelope cell-cell fusion blockers – cherry-pick, dose response (AID 652062); assay type: functional, cell-based;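 further: luciferase signal from cell-cell fusion driven by HIV-1 clade B AD8 Env; potency is for inhibitors of fusion seen as a drop in luminescence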
Cytochrome P450 2C9 = Cytochrome P450 2C9 (Homo sapiens, UniProt P11712)
Sequence of Cytochrome P450 2C9 (P11712 whole entry, the tested form may be a part): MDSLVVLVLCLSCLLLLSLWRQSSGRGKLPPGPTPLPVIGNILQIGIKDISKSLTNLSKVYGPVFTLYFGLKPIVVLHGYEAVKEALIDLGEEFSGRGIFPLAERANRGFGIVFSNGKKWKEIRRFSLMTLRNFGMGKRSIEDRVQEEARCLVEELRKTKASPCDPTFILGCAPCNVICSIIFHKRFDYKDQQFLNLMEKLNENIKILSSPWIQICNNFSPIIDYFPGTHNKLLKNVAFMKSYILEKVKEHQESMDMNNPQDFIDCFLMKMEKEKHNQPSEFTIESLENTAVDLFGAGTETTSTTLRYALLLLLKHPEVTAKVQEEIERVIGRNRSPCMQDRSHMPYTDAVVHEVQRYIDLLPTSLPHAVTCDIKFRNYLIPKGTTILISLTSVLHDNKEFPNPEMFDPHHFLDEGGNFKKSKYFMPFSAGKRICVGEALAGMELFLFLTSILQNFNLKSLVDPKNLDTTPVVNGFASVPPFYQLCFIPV

[17] = off-target signal loss in HeLa-CEM21 co-culture – HeLa F-luc CTL cells, cherry-picked, counter-screen for HIV-1 Env fusion inhibitor project, dose response (AID 652040); assay type: functional, cell-based;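 further: potency for signal decrease marking cytotoxic or nonspecific inhibition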
Streptococcus = assay: GAS UMAA2166 growth inhibition – luminescence, BacTiterGlo, counter-screen for streptokinase expression inhibitor project, dose response (AID 1915); assay type: functional, organism-based;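 further: potency for reduction of bacterial viability or growth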
[18] = DRD fibroblast viability loss – cell-based, non-viral oncogenic, luminescence, dose response (AID 1934); assay type: functional; details: Homo sapiens

Sequence of Small ubiquitin-related modifier 2 (P61956 whole entry): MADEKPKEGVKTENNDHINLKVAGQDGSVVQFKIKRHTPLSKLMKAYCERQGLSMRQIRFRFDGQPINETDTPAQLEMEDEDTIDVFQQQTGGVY

With COc1ccc(NS(=O)(=O)c2ccc3c(c2)[C@H]2C=CC[C@H]2[C@@H](c2ccc(C(=O)O)cc2)N3)cc1 the IC50 [1] was 5.81 µM (active), the IC50 [2] was 24.5 µM (inactive) and the IC50 (Genome polyprotein) was 44.3 µM (active). For the same molecule, the IC50 [3] was 4.98 µM (active).
In the case of Cn1nc(-c2ccccn2)nc2c(=O)n(C)c(=O)nc1-2, the AC50 [4] is reported as 2.42 µM (active), the AC50 [5] is reported as 3.15 µM (active) and the AC50 [6] is reported as 5.81 µM (active). The AC50 [7] was 3.79 µM (active), the AC50 [8] was 2.73 µM (active) and the IC50 [9] was < 1.23 µM (not active). The AC50 [10] was 21.2 µM (active), the AC50 [11] was 1.22 µM (active) and the AC50 [12] was 2.96 µM (active). The IC50 [13] was < 1.23 µM (inactive) and the AC50 [14] was 1.49 µM (active).
With CCCCCCCCCCn1c2c(c(=N)c3c1CCC3)CCC2 the AC50 [15] was 1.7 µM (active), the AC50 (Cytochrome P450 3A4) was 31.6 µM (inconclusive) and the IC50 (Galanin receptor type 3) was > 1.11 µM (active). The EC50 (BJ) was 3.26 µM (inconclusive), the AC50 [16] was 0.726 µM (active) and the AC50 (Cytochrome P450 2C9) was 20 µM (inconclusive). For the same molecule, the AC50 [17] was 0.424 µM (active), the EC50 (Streptococcus) was 8.86 µM (active) and the EC50 [18] was 3.44 µM (inconclusive).
